Tested on: primary human AML cells
Assay: Xenotransplantation of shRNA-transduced primary human AML cells into NSG mice
Type: in vivo
Text: The phenotype of wt peptide treatment was then compared with that of downregulation of SALL4 in primary AML cells. SALL4-specific shRNA (7210 and 7412, FIG. 6A) validated by previous studies were used for these experiments. FACS analysis with Annexin V/PI staining confirmed that there was a 2-fold increase in cell apoptosis and cell death in vitro in primary AML cells when SALL4 expression was reduced (FIG. 6B). In addition, there was an increased survival of leukemic recipient mice in vivo upon knocking down of SALL4 expression in these primary AML samples (FIG. 6C). 1.5×10^6 SALL4 shRNA or control retrovirus-treated primary human AML cells were transplanted into sublethally irradiated (1.0 Gy) NOD/SCID/IL2rγ-null mice by tail vein injection. Fatal AML with onset ranging from one to three months developed in all control recipient (7 out of 7) and some SALL4 shRNA recipient (2 out of 6) mice after transplantation. The transplanted leukemia disease was characterized by immature blasts with human CD45 expression in peripheral blood, bone marrow, and tissues such as liver and spleen (FIGS. 6C-6F). […] While the median survival of control recipient mice (N=7) was 33 days, the median survival of SALL4 shRNA recipient mice (N=6) was 109 days. Both the Log rank (also called Mantel-Cox, P=0.03 (FIG. 4H) and Gehan-Breslow-Wilcoxon (P=0.01)) tests were used for survival analysis and were statistically significant.
NSG (NOD.Cg-Prkdcscid Il2rgtm 1Wjl/SzJ, The Jackson Laboratory, ME, USA) mice were bred and maintained in the Children's Hospital Boston animal facility. All animal work has been approved by and done according to the guidelines of the IACUC under protocol 10-10-1832. Human primary AML cells exposed to various peptides or carrier only (1.0×10^6 cells per mouse) or transduced with SALL4-shRNA or control lentivirus (1.5×10^6 cell per mouse) were transplanted into 10- to 12-week old mice received 135 cGy sublethal irradiation 2-4 h before the injection via the dorsal tail vein. Mice were euthanized when they became ill or at 78 days post-transplantation. BM was removed from the two femurs by flushing with RPMI1640 medium, spleen cells were abstained by mincing and filtering through a cell strainer and peripheral blood was collected from the heart. […] The percentage of human CD45+ cells was calculated as follows: % human CD45+ cells=No. human CD45+ cells/(No. human CD45+ cells+No. mouse CD45+ cells)×100. […]
SALL4 is critical for leukemic cell survival in the AML cell line NB4 (Yang, et al., Blood, 112:805-813 (2008)). […] 48 hours after transduction, the viability of cells was determined by flow cytometry after staining with Annexin V and propidium iodide (PI). […]

Sequence: GATGCCTTGAAACAAGCCAAGCTACCTCA (chemistry not given here) [compound 7412, SALL4 shRNA used in primary AML cells]
- recipient mice without leukemia / still healthy (four months after transplantation): four out of six
- recipient mice that developed fatal AML / leukemia (mouse, in vivo): 2 out of 6
- human CD45 positive cells in non-leukemic recipients (peripheral blood, bone marrow or spleen): less than 0.5%
- median survival of recipient mice (transduced primary human AML cells, tail vein): 109 days

Reference: patent US9365851B2, “Spalt-like transcription factor 4 (SALL4) and uses thereof” (National University of Singapore, priority 2011, dated 2016)
